Data taken from the supplement of paper PMC8967900.

Assays:
Experiment in all cases: selective drug sensitivity score (sDSS, relative to normal bone marrow) (sDSS (score)); higher = more potent and effective on the cell line relative to normal bone marrow cells
Details in all cases: 72 h
[1] = system: 697
[2] = system: CCRF-CEM
[3] = system: CCRF-HSB2
[4] = system: COG-LL-332h
[5] = system: COG-LL-402h
[6] = system: HAL-01
[7] = system: KARPAS-45
[8] = system: KASUMI-2
[9] = system: KOPN-8
[10] = system: LC4-1
[11] = system: MHH-CALL-3
[12] = system: MHH-CALL-4
[13] = system: MOLT-16
[14] = system: NALL-1
[15] = system: NALM-6
[16] = system: PF-382
[17] = system: RPMI-8402
[18] = system: SEM cells
[19] = system: SUP-B15
[20] = system: TMD5
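Note: ALL cell lines in 384-well plates, five doses spanning 10,000-fold, each plate scaled between vehicle and 100 µmol/L benzalkonium chloride controls, sDSS an adapted area-under-curve metric.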

SMILES	selective drug sensitivity score [1]	selective drug sensitivity score [2]	selective drug sensitivity score [3]	selective drug sensitivity score [4]	selective drug sensitivity score [5]	selective drug sensitivity score [6]	selective drug sensitivity score [7]	selective drug sensitivity score [8]	selective drug sensitivity score [9]	selective drug sensitivity score [10]	selective drug sensitivity score [11]	selective drug sensitivity score [12]	selective drug sensitivity score [13]	selective drug sensitivity score [14]	selective drug sensitivity score [15]	selective drug sensitivity score [16]	selective drug sensitivity score [17]	selective drug sensitivity score [18]	selective drug sensitivity score [19]	selective drug sensitivity score [20]
COc1cc(Br)c(Nc2nc(-c3c(C)nc4ncccn34)cs2)c(Br)c1 [PTC-209] (top concentration 10000 nM)	5.62	0.52	0.72	-1.08	-0.78	0.42	0.02	-2.68	4.82	0.12	-5.08	-2.68	0.72	-1.78	2.22	-0.68	1.02	2.42	-0.18	-2.18
CCCOc1ccn2c(C(C)=O)cc(-c3ccccc3S(C)(=O)=O)c2c1 [GSK2801] (top concentration 10000 nM)	-0.16	-0.26	-0.36	2.04	-0.36	-0.36	0.44	4.84	1.94	0.24	-0.36	-0.36	-0.16	-0.36	-0.36	0.54	-0.16	-0.36	-0.36	-0.36
C#Cc1cccc(Nc2ncnc3cc4c(cc23)OCCOCCOCCO4)c1 [Icotinib] (top concentration 10000 nM)	3.2	0.3	2.6	0.3	0	1.2	1.4	2.9	5.7	3.2	1.3	0	2.2	6.5	0	0.5	2.3	3	1.2	7.5
CN(C)C[C@@H]1CCn2cc(c3ccccc32)C2=C(C(=O)NC2=O)c2cn(c3ccccc23)CCO1 [Ruboxistaurin] (top concentration 10000 nM)	2.36	-0.34	1.36	1.16	0.96	1.16	-0.14	-3.34	0.86	0.16	-4.24	1.46	-0.34	-3.04	-2.64	-1.34	-1.74	0.66	0.06	0.46
C=CCc1cccc(/C=N/NC(=O)CN2CCN(Cc3ccccc3)CC2)c1O [PAC-1] (top concentration 10000 nM)	4.08	5.18	1.78	7.08	4.98	3.38	3.28	-0.72	5.28	0.18	-0.22	1.18	2.68	-0.42	2.18	2.78	1.78	2.98	2.08	0.98
Oc1ncnc2[nH]ncc12 [Allopurinol] (top concentration 10000 nM)	-0.64	-0.24	-0.64	-0.64	-0.64	-0.64	-0.24	-0.64	-0.64	0.06	-0.64	-0.64	-0.64	-0.64	-0.04	-0.64	-0.64	-0.54	0.36	-0.64
CC#CC(=O)N1CCC[C@H]1c1nc(-c2ccc(C(=O)Nc3ccccn3)cc2)c2c(N)nccn12 [Acalabrutinib] (top concentration 1000 nM)	0.8	0.8	-0.1	-0.1	-0.1	7.2	0.7	-0.1	-0.1	-0.1	0	7.4	-0.1	-0.1	-0.1	0	-0.1	3.2	3.7	5.9
CNC(=O)c1ccc2cc([C@@]3(O)CCn4cncc43)ccc2c1 [Orteronel] (top concentration 10000 nM)	0	0	0	0	0	0	0	4.6	1	4.9	0	0	0	0	0	0	0	0	2.1	0
C[C@H]1CNCCCN1S(=O)(=O)c1cccc2cncc(F)c12 [Ripasudil] (top concentration 10000 nM)	2.68	-0.12	1.58	1.78	-0.22	-0.22	0.88	-0.22	0.88	-0.22	-0.22	0.18	-0.22	-0.22	-0.22	-0.22	0.98	-0.22	4.88	0.98
COc1cc2ncnc(Nc3ccc(F)c(Cl)c3)c2cc1NC(=O)/C=C/CN1CCCCC1 [Dacomitinib] (top concentration 1000 nM)	-0.34	0.26	3.76	-0.84	0.96	2.66	0.36	-1.64	-0.34	-0.94	2.06	1.86	-1.04	-1.64	-1.64	-0.94	-0.34	0.86	-1.34	1.46
